Results: patent publication US10670605B2, “Cysteine reactive probes and uses thereof” (The Scripps Research Institute, priority 2015, dated 2020)

Columns and labels:
Assay in all cases: Competitive isoTOP-ABPP, cell lysates
Assay type in all cases: binding
ACAT1 C126 (P24752) = biological target: T1, ACAT1 C126 (P24752) (Homo sapiens, UniProt P24752); settings: for isoTOP-ABPP ratio, P24752_C126: 500 μM, invitro, 231
T1 sequence (P24752 34-427): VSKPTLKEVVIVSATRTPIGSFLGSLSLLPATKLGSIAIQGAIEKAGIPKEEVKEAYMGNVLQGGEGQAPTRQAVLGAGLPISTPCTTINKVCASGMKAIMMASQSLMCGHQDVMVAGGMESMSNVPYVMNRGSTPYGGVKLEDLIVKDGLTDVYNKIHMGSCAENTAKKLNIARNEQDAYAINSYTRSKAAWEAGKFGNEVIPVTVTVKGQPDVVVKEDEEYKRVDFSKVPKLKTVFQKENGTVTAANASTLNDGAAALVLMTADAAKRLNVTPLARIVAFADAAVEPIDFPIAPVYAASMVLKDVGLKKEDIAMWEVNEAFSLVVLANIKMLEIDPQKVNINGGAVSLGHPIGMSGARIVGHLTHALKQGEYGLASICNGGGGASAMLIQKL

ACAT1 C119 (P24752) = biological target: T2, ACAT1 C119 (P24752) (Homo sapiens, UniProt P24752); settings: for isoTOP-ABPP ratio P24752_C119: 500 μM, invitro
T2 sequence (P24752 34-427): T1 sequence (P24752 34-427)

PRMT1 C109 (Q99873) = PRMT1 C109 (Q99873) (Homo sapiens, UniProt Q99873); settings: for isoTOP-ABPP ratio, Q99873_C109: 500 μM, invitro
STAT3 C259 (P40763) = STAT3 C259 (P40763) (Homo sapiens, UniProt P40763); settings: for isoTOP-ABPP ratio, P40763_C259: 500 μM, invitro
DCUN1D1 C115 (Q96GG9) = DCUN1D1 C115 (Q96GG9) (Homo sapiens, UniProt Q96GG9)
ADA C75 (P00813) = biological target: T3, ADA C75 (P00813) (Homo sapiens, UniProt P00813); settings: for isoTOP-ABPP ratio (reactivity profile), P00813_C75: 500 μm in-vitro ramos
T3 sequence (P00813 1-363): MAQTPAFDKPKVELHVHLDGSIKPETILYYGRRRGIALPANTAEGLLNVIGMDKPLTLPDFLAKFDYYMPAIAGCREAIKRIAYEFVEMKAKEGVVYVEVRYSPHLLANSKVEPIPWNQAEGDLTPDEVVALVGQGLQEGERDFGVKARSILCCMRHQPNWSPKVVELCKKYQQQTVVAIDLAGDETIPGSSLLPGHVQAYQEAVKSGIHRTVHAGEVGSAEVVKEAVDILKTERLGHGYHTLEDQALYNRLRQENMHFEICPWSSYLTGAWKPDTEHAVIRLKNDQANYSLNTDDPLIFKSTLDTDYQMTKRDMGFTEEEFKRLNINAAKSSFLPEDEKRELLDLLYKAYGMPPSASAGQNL

SMARCC2 C145 (Q8TAQ2) = SMARCC2 C145 (Q8TAQ2) (Homo sapiens, UniProt Q8TAQ2)
PDIA6 C190 (Q15084) = biological target: T4, PDIA6 C190 (Q15084) (Homo sapiens, UniProt Q15084); settings: for isoTOP-ABPP ratio, Q15084_C190: 500 μM, invitro
T4 sequence (Q15084 20-440): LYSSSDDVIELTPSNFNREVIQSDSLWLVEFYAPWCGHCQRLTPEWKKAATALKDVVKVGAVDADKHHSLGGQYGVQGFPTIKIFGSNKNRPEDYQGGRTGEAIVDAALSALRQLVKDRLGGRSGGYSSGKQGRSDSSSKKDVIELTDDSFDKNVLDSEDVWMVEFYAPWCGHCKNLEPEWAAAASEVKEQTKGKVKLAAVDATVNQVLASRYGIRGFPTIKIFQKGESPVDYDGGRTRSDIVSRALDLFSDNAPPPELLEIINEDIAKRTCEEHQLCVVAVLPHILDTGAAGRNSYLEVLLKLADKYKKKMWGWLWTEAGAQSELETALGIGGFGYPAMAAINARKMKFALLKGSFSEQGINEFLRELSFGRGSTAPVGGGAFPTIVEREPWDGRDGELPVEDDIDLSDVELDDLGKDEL

XPO1 C528 (O14980) = XPO1 C528 (O14980) (Homo sapiens, UniProt O14980); settings: for isoTOP-ABPP ratio O14980_C528: 500 μM, invitro
XPO1 C34 (O14980) = XPO1 C34 (O14980) (Homo sapiens, UniProt O14980); settings: for isoTOP-ABPP ratio, O14980_C34: 500 μM, invitro
Chain of XPO1 C34 (O14980) (O14980 whole entry): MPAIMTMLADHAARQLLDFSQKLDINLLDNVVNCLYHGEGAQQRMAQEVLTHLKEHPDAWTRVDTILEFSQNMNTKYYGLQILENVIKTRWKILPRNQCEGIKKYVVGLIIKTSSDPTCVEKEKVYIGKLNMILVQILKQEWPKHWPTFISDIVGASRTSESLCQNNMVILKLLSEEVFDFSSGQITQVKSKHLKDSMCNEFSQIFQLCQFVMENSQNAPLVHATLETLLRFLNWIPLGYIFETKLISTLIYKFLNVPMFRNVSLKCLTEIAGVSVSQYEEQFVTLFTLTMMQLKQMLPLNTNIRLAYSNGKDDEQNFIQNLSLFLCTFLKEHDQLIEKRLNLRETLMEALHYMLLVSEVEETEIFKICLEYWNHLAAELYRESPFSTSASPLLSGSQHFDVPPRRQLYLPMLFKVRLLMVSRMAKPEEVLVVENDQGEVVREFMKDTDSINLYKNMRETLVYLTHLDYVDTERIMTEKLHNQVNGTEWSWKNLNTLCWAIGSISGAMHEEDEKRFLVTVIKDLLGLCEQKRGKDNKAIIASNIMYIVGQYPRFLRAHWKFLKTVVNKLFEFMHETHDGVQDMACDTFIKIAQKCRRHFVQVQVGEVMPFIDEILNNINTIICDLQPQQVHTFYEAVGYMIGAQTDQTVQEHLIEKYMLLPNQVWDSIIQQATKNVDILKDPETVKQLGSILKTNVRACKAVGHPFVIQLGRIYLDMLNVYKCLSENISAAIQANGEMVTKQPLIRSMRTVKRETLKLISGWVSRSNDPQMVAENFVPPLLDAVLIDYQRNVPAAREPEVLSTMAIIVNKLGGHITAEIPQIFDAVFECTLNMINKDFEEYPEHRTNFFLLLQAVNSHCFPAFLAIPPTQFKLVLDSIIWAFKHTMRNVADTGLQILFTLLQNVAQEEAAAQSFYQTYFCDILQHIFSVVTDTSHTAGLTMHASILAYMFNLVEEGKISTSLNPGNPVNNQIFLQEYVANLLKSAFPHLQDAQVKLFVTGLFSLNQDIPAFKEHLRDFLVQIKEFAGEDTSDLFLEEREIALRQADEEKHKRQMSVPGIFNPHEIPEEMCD

Chain of PRMT1 C109 (Q99873) (Q99873 whole entry): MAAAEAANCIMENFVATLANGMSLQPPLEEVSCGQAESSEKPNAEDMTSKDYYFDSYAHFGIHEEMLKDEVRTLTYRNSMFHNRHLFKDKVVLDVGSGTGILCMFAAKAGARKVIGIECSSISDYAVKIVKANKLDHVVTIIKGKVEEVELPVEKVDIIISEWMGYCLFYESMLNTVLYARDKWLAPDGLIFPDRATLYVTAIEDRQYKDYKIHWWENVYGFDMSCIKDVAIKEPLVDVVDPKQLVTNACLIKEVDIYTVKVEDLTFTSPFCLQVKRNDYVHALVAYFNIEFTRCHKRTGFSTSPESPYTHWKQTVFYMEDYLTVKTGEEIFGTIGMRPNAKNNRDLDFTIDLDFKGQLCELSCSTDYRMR
Chain of STAT3 C259 (P40763) (P40763 whole entry): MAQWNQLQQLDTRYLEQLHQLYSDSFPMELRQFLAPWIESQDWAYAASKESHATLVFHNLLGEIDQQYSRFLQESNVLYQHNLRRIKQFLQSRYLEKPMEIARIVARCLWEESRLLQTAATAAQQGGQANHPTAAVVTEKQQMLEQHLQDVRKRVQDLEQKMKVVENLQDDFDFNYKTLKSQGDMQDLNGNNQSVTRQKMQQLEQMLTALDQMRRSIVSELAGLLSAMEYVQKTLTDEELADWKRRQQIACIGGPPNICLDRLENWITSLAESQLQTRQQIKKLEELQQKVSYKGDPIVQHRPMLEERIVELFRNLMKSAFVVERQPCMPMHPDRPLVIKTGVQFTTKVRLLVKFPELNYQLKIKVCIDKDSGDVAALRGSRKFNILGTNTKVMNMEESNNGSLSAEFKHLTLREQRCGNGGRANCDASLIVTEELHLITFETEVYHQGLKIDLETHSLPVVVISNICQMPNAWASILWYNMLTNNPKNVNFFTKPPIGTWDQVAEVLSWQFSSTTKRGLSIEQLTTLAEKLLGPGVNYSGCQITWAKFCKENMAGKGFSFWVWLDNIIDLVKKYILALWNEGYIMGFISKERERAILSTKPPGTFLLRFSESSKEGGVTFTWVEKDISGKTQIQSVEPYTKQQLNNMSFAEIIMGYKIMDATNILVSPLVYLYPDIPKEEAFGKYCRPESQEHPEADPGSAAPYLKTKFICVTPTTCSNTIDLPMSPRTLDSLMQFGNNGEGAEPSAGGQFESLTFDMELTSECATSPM
Chain of SMARCC2 C145 (Q8TAQ2) (Q8TAQ2 whole entry): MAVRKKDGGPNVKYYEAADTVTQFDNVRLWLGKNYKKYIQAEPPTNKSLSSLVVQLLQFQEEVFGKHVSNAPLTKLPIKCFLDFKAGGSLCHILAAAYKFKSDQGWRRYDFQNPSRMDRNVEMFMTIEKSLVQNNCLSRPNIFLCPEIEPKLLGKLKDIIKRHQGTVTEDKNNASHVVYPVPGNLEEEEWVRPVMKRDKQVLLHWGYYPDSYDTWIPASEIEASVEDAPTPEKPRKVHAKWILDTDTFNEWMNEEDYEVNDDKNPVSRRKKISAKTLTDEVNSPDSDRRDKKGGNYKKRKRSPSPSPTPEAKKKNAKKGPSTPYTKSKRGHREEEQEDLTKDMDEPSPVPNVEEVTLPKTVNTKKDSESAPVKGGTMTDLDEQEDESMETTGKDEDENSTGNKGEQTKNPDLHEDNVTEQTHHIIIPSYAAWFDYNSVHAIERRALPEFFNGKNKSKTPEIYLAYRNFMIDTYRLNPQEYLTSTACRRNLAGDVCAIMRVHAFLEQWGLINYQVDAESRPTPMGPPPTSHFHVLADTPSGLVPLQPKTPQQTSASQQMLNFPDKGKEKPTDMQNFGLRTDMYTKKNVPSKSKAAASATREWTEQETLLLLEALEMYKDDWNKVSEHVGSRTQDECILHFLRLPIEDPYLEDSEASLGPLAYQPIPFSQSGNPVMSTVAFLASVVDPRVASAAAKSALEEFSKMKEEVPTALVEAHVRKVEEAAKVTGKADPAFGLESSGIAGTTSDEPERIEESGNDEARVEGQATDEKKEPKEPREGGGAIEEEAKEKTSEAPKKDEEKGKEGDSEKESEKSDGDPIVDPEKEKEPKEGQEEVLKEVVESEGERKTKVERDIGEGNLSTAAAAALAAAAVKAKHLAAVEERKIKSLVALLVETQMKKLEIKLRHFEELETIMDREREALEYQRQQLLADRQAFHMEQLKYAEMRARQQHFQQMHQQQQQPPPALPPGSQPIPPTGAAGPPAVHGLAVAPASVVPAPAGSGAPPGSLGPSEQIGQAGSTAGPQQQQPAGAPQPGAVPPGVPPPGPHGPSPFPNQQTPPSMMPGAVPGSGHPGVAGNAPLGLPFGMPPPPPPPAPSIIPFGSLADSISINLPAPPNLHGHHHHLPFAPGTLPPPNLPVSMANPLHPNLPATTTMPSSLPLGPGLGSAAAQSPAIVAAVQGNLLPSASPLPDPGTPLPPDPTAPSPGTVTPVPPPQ
Chain of XPO1 C528 (O14980) (O14980 whole entry): as the sequence (O14980 whole entry) above
Chain of DCUN1D1 C115 (Q96GG9) (Q96GG9 whole entry): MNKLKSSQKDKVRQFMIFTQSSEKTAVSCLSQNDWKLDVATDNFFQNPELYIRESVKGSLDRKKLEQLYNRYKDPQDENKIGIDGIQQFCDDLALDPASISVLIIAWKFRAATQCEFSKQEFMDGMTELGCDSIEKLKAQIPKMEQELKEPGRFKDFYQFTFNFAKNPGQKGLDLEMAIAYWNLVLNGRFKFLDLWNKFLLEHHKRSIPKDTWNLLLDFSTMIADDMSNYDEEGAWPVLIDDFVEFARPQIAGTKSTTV

isoTOP-ABPP ratio, P24752_C126 (ACAT1 C126 (P24752)) | isoTOP-ABPP ratio P24752_C119 (ACAT1 C119 (P24752); 231) | isoTOP-ABPP ratio, Q99873_C109 (PRMT1 C109 (Q99873); 231) | isoTOP-ABPP ratio, Q15084_C190 (PDIA6 C190 (Q15084); 231) | isoTOP-ABPP ratio O14980_C528 (XPO1 C528 (O14980); 231) | isoTOP-ABPP ratio (reactivity profile), P24752_C119 (ACAT1 C119 (P24752); 500 μm in-vitro ramos) | isoTOP-ABPP ratio (reactivity profile), Q99873_C109 (PRMT1 C109 (Q99873); 500 μm in-vitro ramos) | isoTOP-ABPP ratio (reactivity profile), P40763_C259 (STAT3 C259 (P40763); 500 μm in-vitro ramos) | isoTOP-ABPP ratio (reactivity profile), Q96GG9_C115 (DCUN1D1 C115 (Q96GG9); 500 μm in-vitro ramos) | isoTOP-ABPP ratio (reactivity profile), P00813_C75 (ADA C75 (P00813)) | isoTOP-ABPP ratio (reactivity profile), Q15084_C190 (PDIA6 C190 (Q15084); 500 μm in-vitro ramos) | isoTOP-ABPP ratio (reactivity profile), O14980_C528 (XPO1 C528 (O14980); 500 μm in-vitro ramos) | isoTOP-ABPP ratio (reactivity profile), O14980_C34 (XPO1 C34 (O14980); 500 μm in-vitro ramos) | isoTOP-ABPP ratio (reactivity profile), P24752_C126 (ACAT1 C126 (P24752); 500 μm in-vitro ramos) | isoTOP-ABPP ratio (reactivity profile), P24752_C126 (ACAT1 C126 (P24752); 500 μm in-vitro ramos_231) | isoTOP-ABPP ratio (reactivity profile), P24752_C119 (ACAT1 C119 (P24752); 500 μm in-vitro ramos_231) | isoTOP-ABPP ratio (reactivity profile), Q99873_C109 (PRMT1 C109 (Q99873); 500 μm in-vitro ramos_231) | isoTOP-ABPP ratio (reactivity profile), Q8TAQ2_C145 (SMARCC2 C145 (Q8TAQ2); 500 μm in-vitro ramos_231) | isoTOP-ABPP ratio (reactivity profile), Q15084_C190 (PDIA6 C190 (Q15084); 500 μm in-vitro ramos_231) | isoTOP-ABPP ratio (reactivity profile), O14980_C34 (XPO1 C34 (O14980); 500 μm in-vitro ramos_231) | Structure (SMILES) | other results
1.5 | 1.2 | 20.0 | 20.0 | 1.0 |  |  |  |  |  |  |  |  |  |  |  |  |  |  |  | Cn1cc(S(=O)(=O)N2CCOCC2)cc1C(=O)NC(=O)CCl [compound 11] | isoTOP-ABPP ratio P24752_C119 (ACAT1 C119 (P24752); ramos): 0.9; isoTOP-ABPP ratio, Q99873_C109 (PRMT1 C109 (Q99873); ramos): 20.0; blockade of IA-alkyne labeling of C109 of PRMT1 (PRMT1 C109 (Q99873); competitive isoTOP-ABPP): blocking IA-alkyne labeling; isoTOP-ABPP ratio, P40763_C259 (STAT3 C259 (P40763); 231): 20.0; isoTOP-ABPP ratio, P40763_C259 (STAT3 C259 (P40763); ramos): 20.0; isoTOP-ABPP ratio, Q96GG9_C115 (DCUN1D1 C115 (Q96GG9); 500 μM, invitro, ramos): 0.9; isoTOP-ABPP ratio, P00813_C75 (ADA C75 (P00813); 500 μM, invitro, ramos): 7.5; isoTOP-ABPP ratio Q8TAQ2_C145 (SMARCC2 C145 (Q8TAQ2); 500 μM, invitro, 231): 20.0; isoTOP-ABPP ratio, Q15084_C190 (PDIA6 C190 (Q15084); ramos): 20.0; isoTOP-ABPP ratio O14980_C528 (XPO1 C528 (O14980); ramos): 0.7; isoTOP-ABPP ratio, O14980_C34 (XPO1 C34 (O14980); 231): 1.2; isoTOP-ABPP ratio, O14980_C34 (XPO1 C34 (O14980); ramos): 1.0
0.8 | 1.0 | 0.9 | 0.9 | 0.8 | 1.2 | 1.2 | 1.9 | 0.8 | 1.1 | 1.2 | 1.0 | 1.2 |  |  |  |  |  |  |  | C=CC(=O)N(Cc1cccnc1)c1ccc(Oc2ccccc2)c(C(F)(F)F)c1 [compound 15] | isoTOP-ABPP ratio (reactivity profile), Q8TAQ2_C145 (SMARCC2 C145 (Q8TAQ2); 500 μm in-vitro ramos): 1.2
 |  |  |  |  | 1.1 | 1.5 | 2.9 | 1.0 | 1.3 | 2.3 | 0.8 | 1.2 | 1.4 | 1.2 | 0.9 | 1.1 | 1.2 | 1.1 | 0.9 | O=C(CCl)NC12CC3CC(CC(C3)C1)C2 [compound 21] | isoTOP-ABPP ratio (reactivity profile), Q96GG9_C115 (DCUN1D1 C115 (Q96GG9); 500 μm in-vitro ramos_231): 1.0; isoTOP-ABPP ratio (reactivity profile), O14980_C528 (XPO1 C528 (O14980); 500 μm in-vitro ramos_231): 0.9

Further lines, the compound ahead of its results:

Structure (SMILES) | isoTOP-ABPP ratio, P24752_C126 (ACAT1 C126 (P24752)) | isoTOP-ABPP ratio P24752_C119 (ACAT1 C119 (P24752); 231) | isoTOP-ABPP ratio, Q99873_C109 (PRMT1 C109 (Q99873); 231) | isoTOP-ABPP ratio, Q15084_C190 (PDIA6 C190 (Q15084); 231) | isoTOP-ABPP ratio O14980_C528 (XPO1 C528 (O14980); 231) | isoTOP-ABPP ratio (reactivity profile), P24752_C119 (ACAT1 C119 (P24752); 500 μm in-vitro ramos) | isoTOP-ABPP ratio (reactivity profile), Q99873_C109 (PRMT1 C109 (Q99873); 500 μm in-vitro ramos) | isoTOP-ABPP ratio (reactivity profile), P40763_C259 (STAT3 C259 (P40763); 500 μm in-vitro ramos) | isoTOP-ABPP ratio (reactivity profile), Q96GG9_C115 (DCUN1D1 C115 (Q96GG9); 500 μm in-vitro ramos) | isoTOP-ABPP ratio (reactivity profile), P00813_C75 (ADA C75 (P00813)) | isoTOP-ABPP ratio (reactivity profile), Q15084_C190 (PDIA6 C190 (Q15084); 500 μm in-vitro ramos) | isoTOP-ABPP ratio (reactivity profile), O14980_C528 (XPO1 C528 (O14980); 500 μm in-vitro ramos) | isoTOP-ABPP ratio (reactivity profile), O14980_C34 (XPO1 C34 (O14980); 500 μm in-vitro ramos) | isoTOP-ABPP ratio (reactivity profile), P24752_C126 (ACAT1 C126 (P24752); 500 μm in-vitro ramos) | isoTOP-ABPP ratio (reactivity profile), P24752_C126 (ACAT1 C126 (P24752); 500 μm in-vitro ramos_231) | isoTOP-ABPP ratio (reactivity profile), P24752_C119 (ACAT1 C119 (P24752); 500 μm in-vitro ramos_231) | isoTOP-ABPP ratio (reactivity profile), Q99873_C109 (PRMT1 C109 (Q99873); 500 μm in-vitro ramos_231) | isoTOP-ABPP ratio (reactivity profile), Q8TAQ2_C145 (SMARCC2 C145 (Q8TAQ2); 500 μm in-vitro ramos_231) | isoTOP-ABPP ratio (reactivity profile), Q15084_C190 (PDIA6 C190 (Q15084); 500 μm in-vitro ramos_231) | isoTOP-ABPP ratio (reactivity profile), O14980_C34 (XPO1 C34 (O14980); 500 μm in-vitro ramos_231) | other results
O=C(CCl)N1CCC(C(O)(c2ccccc2)c2ccccc2)CC1 [compound 20] |  |  |  |  |  | 2.6 | 2.2 | 3.0 | 1.2 | 1.5 | 2.1 | 4.0 | 1.2 | 20.0 | 10.6 | 3.6 | 1.9 | 2.9 | 2.1 | 1.0 | isoTOP-ABPP ratio (reactivity profile), Q96GG9_C115 (DCUN1D1 C115 (Q96GG9); 500 μm in-vitro ramos_231): 1.2; isoTOP-ABPP ratio (reactivity profile), Q8TAQ2_C145 (SMARCC2 C145 (Q8TAQ2); 500 μm in-vitro ramos): 3.9; isoTOP-ABPP ratio (reactivity profile), O14980_C528 (XPO1 C528 (O14980); 500 μm in-vitro ramos_231): 1.4
N#C/C(=C\c1cc(C(F)(F)F)cc(C(F)(F)F)c1)C(N)=O [compound 23] |  |  |  |  |  | 2.0 | 1.0 | 0.8 | 20.0 | 1.1 | 1.1 | 2.9 | 5.3 | 0.8 | 0.8 | 1.7 | 0.8 | 1.3 | 0.8 | 3.4 | isoTOP-ABPP ratio (reactivity profile), P40763_C259 (STAT3 C259 (P40763); 500 μm in-vitro ramos_231): 1.1
